Patent US11802131B2, “Glutarimides for medical treatment” (C4 Therapeutics, Inc., priority 2017, dated 2023)

target: hCereblon(M1-L442)_hDDB1(M1-H1140) (Homo sapiens (Human), UniProt Q96SW2); test: Fluorescence direct binding protocol (tryptophan fluorescence titration); settings: 20° C., excited at 280 nm, recorded at 340 nm, assay buffer 50 mM Hepes 7.4 200 mM NaCl; read-out: Fluorescence h-Cereblon_DDB1 Mean Kd_EQ
Experimental: Fluorescence Direct Binding Protocol
Determination of the affinities of compounds to protein containing one or more tryptophan is measurable by monitoring the fluorescence emission in direct mode. The measurements depending on the protein available amounts are performed either manually in a cuvette on ISS-PC1 photon counting spectrofluorometer or automatically in well plates on a fluorescence plate reader device. Fluorescence titrations are performed at 20° C. in the chosen binding assay buffer by using a defined constant protein concentration against ligand concentration variations. Small aliquots of known ligand concentration solubilized in DMSO were added and the fluorescence, excited at 280 nm, was recorded at 340 nm. The fluorescence intensity was corrected for protein dilution and for the filter effect (Birdsall et al.^72).
1) Optimization of measurement parameters to minimize protein consumption and to minimize the dilution effect and the DMSO content
2) Titration measurements of the protein against ligand by at least 12 titration steps to obtain a good s-curve fit
3) Repeat the same titration measurements with the ligand alone to enable correction
4) Check the stability of the protein once by titration against DMSO alone
5) Determination of the molar extinction coefficients of the ligand at 280 and 340 nm with help of an UV-spectrophotometer
6) Use Excel template for the correction of the measured raw data
7) Use GraphPad Prism software for the quadratic binding fit and the KD evaluation.

Sequence of hCereblon(M1-L442)_hDDB1(M1-H1140) (Q96SW2 whole entry): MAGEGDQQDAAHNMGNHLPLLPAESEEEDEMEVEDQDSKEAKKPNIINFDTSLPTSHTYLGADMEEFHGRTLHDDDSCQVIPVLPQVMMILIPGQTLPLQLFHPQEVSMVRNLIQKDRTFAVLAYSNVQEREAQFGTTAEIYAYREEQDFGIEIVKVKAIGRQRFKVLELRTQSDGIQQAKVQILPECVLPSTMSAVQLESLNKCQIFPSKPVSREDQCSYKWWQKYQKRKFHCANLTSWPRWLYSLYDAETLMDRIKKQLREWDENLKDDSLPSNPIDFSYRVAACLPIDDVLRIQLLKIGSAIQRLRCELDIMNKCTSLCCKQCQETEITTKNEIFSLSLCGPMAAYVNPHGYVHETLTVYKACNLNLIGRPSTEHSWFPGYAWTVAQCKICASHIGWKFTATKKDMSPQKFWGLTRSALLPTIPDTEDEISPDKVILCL
Sequence of hCereblon(M1-L442)_hDDB1(M1-H1140) (Q16531 whole entry partner): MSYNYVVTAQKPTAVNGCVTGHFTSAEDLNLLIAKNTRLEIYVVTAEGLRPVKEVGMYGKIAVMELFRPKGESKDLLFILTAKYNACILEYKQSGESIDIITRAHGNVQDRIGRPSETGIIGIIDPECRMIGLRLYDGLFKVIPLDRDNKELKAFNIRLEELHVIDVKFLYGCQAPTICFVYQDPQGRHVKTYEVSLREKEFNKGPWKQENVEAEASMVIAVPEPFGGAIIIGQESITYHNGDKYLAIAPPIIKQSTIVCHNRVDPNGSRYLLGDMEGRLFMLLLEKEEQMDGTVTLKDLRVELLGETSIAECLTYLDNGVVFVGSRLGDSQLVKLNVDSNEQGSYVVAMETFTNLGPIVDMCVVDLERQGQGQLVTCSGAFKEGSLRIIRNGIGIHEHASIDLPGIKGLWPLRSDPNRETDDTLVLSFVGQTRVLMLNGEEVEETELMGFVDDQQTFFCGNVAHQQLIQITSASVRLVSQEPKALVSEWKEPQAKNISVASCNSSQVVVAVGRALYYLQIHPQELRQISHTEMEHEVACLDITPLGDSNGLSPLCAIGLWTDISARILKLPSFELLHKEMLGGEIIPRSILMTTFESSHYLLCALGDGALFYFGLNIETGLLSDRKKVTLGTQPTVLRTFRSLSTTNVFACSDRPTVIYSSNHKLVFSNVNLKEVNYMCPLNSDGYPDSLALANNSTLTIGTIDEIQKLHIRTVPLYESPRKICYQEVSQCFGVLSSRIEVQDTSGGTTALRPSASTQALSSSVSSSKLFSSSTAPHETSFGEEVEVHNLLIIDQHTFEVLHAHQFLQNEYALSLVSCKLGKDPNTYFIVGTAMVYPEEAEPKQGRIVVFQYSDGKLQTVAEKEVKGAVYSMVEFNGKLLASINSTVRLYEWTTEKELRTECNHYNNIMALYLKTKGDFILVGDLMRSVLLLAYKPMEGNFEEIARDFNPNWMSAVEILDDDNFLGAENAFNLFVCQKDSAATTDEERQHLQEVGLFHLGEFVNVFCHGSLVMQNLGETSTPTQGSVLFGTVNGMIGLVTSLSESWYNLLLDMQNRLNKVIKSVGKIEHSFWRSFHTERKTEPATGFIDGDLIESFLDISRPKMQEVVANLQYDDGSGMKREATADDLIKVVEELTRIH

SMILES	Kd
O=C1CC[C@@H](NC(=O)C2CCc3cccnc32)C(=O)N1 (mixture of isomers) [Example 22]	< 1 nM
O=C1CC[C@H](NC(=O)Cc2ccc3c(c2)CC(=O)N3)C(=O)N1 [Example 69, (S)-N-(2,6-Dioxopiperidin-3-yl)-2-(2-oxoindolin-5-yl)acetamide]	15 nM
O=C1CC[C@H](NC(=O)[C@@H]2CCNc3ccccc32)C(=O)N1 [Example 33, (4R)-N-[(3S)-2,6-Dioxopiperidin-3-yl]-1,2,3,4-tetrahydroquinoline-4-carboxamide]	6 nM
Cc1sc2c(c1C)C(c1ccc(Cl)cc1)=N[C@@H](CC(=O)NCCCCCC(=O)N1CC[C@H](C(=O)N[C@H]3CCC(=O)NC3=O)c3ccccc31)c1nnc(C)n1-2 [Example A, (4S)-1-[6-[[2-[(9S)-7-(4-Chlorophenyl)-4,5,13-trimethyl-3-thia-1,8,11,12-tetrazatricyclo[8.3.0.02,6]trideca-2(6),4,7,10,12-pentaen-9-yl]acetyl]amino]hexanoyl]-N-[(3S)-2,6-dioxo-3-piperidyl]-3,4-dihydro-2H-quinoline-4-carboxamide]	10 nM
CC(=O)Nc1ccc(CC(=O)N[C@H]2CCC(=O)NC2=O)cc1 [Example 65, (S)-2-(4-Acetamidophenyl)-N-(2,6-dioxopiperidin-3-yl)acetamide]	23 nM
O=C1CC[C@@H](NC(=O)N2CCc3cccnc32)C(=O)N1 [Example 36, (R)-N-(2,6-Dioxopiperidin-3-yl)-2,3-dihydro-1H-pyrrolo[2,3-b]pyridine-1-carboxamide]	10 nM
CN(C(=O)N1CCc2ccccc21)[C@@H]1CCC(=O)NC1=O [Example 60, (R)-N-(2,6-Dioxopiperidin-3-yl)-N-methylindoline-1-carboxamide]	30 nM
CC(=O)Nc1ccc(CC(=O)N[C@@H]2CCC(=O)NC2=O)cc1 [Example 66, (R)-2-(4-Acetamidophenyl)-N-(2,6-dioxopiperidin-3-yl)acetamide]	86 nM
CN(C(=O)N1CCc2ccccc21)C1CCC(=O)NC1=O (stereo not shown) [Example 58, N-(2,6-Dioxopiperidin-3-yl)-N-methylindoline-1-carboxamide]	22 nM
CN1C(=O)CCC(NC(=O)[C@H]2CCCc3ccccc32)C1=O (single isomer, unassigned) [Example 75]	46 nM
O=C1CC[C@H](NC(=O)c2ncc3ccccn23)C(=O)N1 [Example 50, (S)-N-(2,6-Dioxopiperidin-3-yl)imidazo[1,5-a]pyridine-3-carboxamide]	4 nM
O=C1CC[C@@H](NC(=O)c2cnn3cccnc23)C(=O)N1 [Example 57, (R)-N-(2,6-Dioxopiperidin-3-yl)pyrazolo[1,5-a]pyrimidine-3-carboxamide]	7 nM
O=C1CC[C@@H](NC(=O)C2CCNc3ccccc32)C(=O)N1 (stereo partly drawn) [Example 39, N-[(3R)-2,6-Dioxo-3-piperidyl]-1,2,3,4-tetrahydroquinoline-4-carboxamide]	19 nM
CN(C(=O)N1CCc2cccnc21)C1CCC(=O)NC1=O (stereo not shown) [Example 62, N-(2,6-Dioxopiperidin-3-yl)-N-methyl-2,3-dihydro-1H-pyrrolo[2,3-b]pyridine-1-carboxamide]	29 nM
O=C1CCC(NC(=O)C2CCc3ccccc32)C(=O)N1 (single isomer, unassigned; (-)) [Example 4, (−)-N-(2,6-Dioxopiperidin-3-yl)-2,3-dihydro-1H-indene-1-carboxamide]	68 nM
O=C1CCC(NC(=O)c2csc3ccccc23)C(=O)N1 (stereo not shown) [Example 13, N-(2,6-Dioxopiperidin-3-yl)benzo[b]thiophene-3-carboxamide]	8 nM
O=C1CC[C@@H](NC(=O)[C@@H]2CCCc3ccccc32)C(=O)N1 [Example 45, (1R)-N-[(3R)-2,6-Dioxopiperidin-3-yl]-1,2,3,4-tetrahydronaphthalene-1-carboxamide]	4 nM
O=C1CC[C@@H](NC(=O)c2c[nH]c3ccccc23)C(=O)N1 [Example 18, (R)-N-(2,6-Dioxopiperidin-3-yl)-1H-indole-3-carboxamide]	14 nM
Cc1sc2c(c1C)C(c1ccc(Cl)cc1)=N[C@@H](CC(=O)NCCOCCOCCOCC(=O)N1CC[C@@H](C(=O)N[C@H]3CCC(=O)NC3=O)c3ccccc31)c1nnc(C)n1-2 [Example C, (4R)-1-[2-[2-[2-[2-[[2-[(9S)-7-(4-Chlorophenyl)-4,5,13-trimethyl-3-thia-1,8,11,12-tetrazatricyclo[8.3.0.02,6]trideca-2(6),4,7,10,12-pentaen-9-yl]acetyl]amino]ethoxy]ethoxy]ethoxy]acetyl]-N-[(3S)-2,6-dioxo-3-piperidyl]-3,4-dihydro-2H-quinoline-4-carboxamide]	8 nM
O=C1CC[C@H](NC(=O)N2CCCc3cccnc32)C(=O)N1 [Example 30, (S)-N-(2,6-Dioxopiperidin-3-yl)-3,4-dihydro-1,8-naphthyridine-1 (2H)-carboxamide]	4 nM
O=C1CC[C@@H](NC(=O)[C@@H]2CCNc3ccccc32)C(=O)N1 [Example 44, (4R)-N-[(3R)-2,6-Dioxopiperidin-3-yl]-1,2,3,4-tetrahydroquinoline-4-carboxamide]	12 nM
CN1C(=O)CCC(NC(=O)[C@H]2CCCc3ccccc32)C1=O (single isomer, unassigned) [Example 74]	5 nM
O=C1CC[C@H](NC(=O)C2CCc3cccnc32)C(=O)N1 (stereo partly drawn) [Example 23, N-((S)-2,6-Dioxopiperidin-3-yl)-6,7-dihydro-5H-cyclopenta[b]pyridine-7-carboxamide]	25 nM
Cn1nc(C(=O)N[C@H]2CCC(=O)NC2=O)c2c1CCNC2 [Example 72, (S)-N-(2,6-Dioxopiperidin-3-yl)-1-methyl-4,5,6,7-tetrahydro-1H-pyrazolo[4,3-c]pyridine-3-carboxamide]	194 nM
O=C1CC[C@H](NC(=O)[C@@H]2CCCc3ccccc32)C(=O)N1 [Example 46, (1R)-N-[(3S)-2,6-Dioxopiperidin-3-yl]-1,2,3,4-tetrahydronaphthalene-1-carboxamide]	39 nM
CN1CCC(C(=O)N[C@@H]2CCC(=O)NC2=O)c2ccccc21 (stereo partly drawn) [Example 40, N-[(3R)-2,6-Dioxo-3-piperidyl]-1-methyl-3,4-dihydro-2H-quinoline-4-carboxamide]	68 nM

The remaining lines, values ahead:

Kd	SMILES
< 1 nM	O=C1CC[C@@H](NC(=O)c2cnc3ccccn23)C(=O)N1 [Example 55, (R)-N-(2,6-Dioxopiperidin-3-yl)imidazo[1,2-a]pyridine-3-carboxamide]
4 nM	O=C1CCC(NC(=O)[C@@H]2CCCc3ccccc32)C(=O)N1 (stereo partly drawn) [Example 14, (1R)-N-(2,6-Dioxopiperidin-3-yl)-1,2,3,4-tetrahydronaphthalene-1-carboxamide]
3 nM	O=C1CC[C@@H](NC(=O)c2ncc3ccccn23)C(=O)N1 [Example 51, (R)-N-(2,6-Dioxopiperidin-3-yl)imidazo[1,5-a]pyridine-3-carboxamide]
1 nM	O=C1CC[C@H](NC(=O)c2coc3ccccc23)C(=O)N1 [Example 21, (S)-N-(2,6-Dioxopiperidin-3-yl)benzofuran-3-carboxamide]
< 1 nM	O=C1CCC(NC(=O)[C@H]2CCCc3ccccc32)C(=O)N1 (stereo partly drawn) [Example 15, (1S)-N-(2,6-Dioxopiperidin-3-yl)-1,2,3,4-tetrahydronaphthalene-1-carboxamide]
1 nM	O=C1CC[C@H](NC(=O)c2cnc3ccccn23)C(=O)N1 [Example 54, (S)-N-(2,6-Dioxopiperidin-3-yl)imidazo[1,2-a]pyridine-3-carboxamide]
< 1 nM	O=C1CC[C@@H](NC(=O)c2n[nH]c3ccccc23)C(=O)N1 [Example 49, (R)-N-(2,6-Dioxopiperidin-3-yl)-1H-indazole-3-carboxamide]
3 nM	O=C1CC[C@@H](NC(=O)Cc2ccc3c(c2)CC(=O)N3)C(=O)N1 [Example 70, (R)-N-(2,6-Dioxopiperidin-3-yl)-2-(2-oxoindolin-5-yl)acetamide]
< 1 nM	O=C1CC[C@H](NC(=O)c2cnn3ccccc23)C(=O)N1 [Example 47, (S)-N-(2,6-Dioxopiperidin-3-yl)pyrazolo[1,5-a]pyridine-3-carboxamide]
3 nM	O=C1CC[C@@H](NC(=O)C2CCc3ncccc32)C(=O)N1 (stereo partly drawn) [Example 20, N-((R)-2,6-Dioxopiperidin-3-yl)-6,7-dihydro-5H-cyclopenta[b]pyridine-5-carboxamide]
3 nM	CC(=O)Nc1cccc(CC(=O)N[C@@H]2CCC(=O)NC2=O)c1 [Example 67, (R)-2-(3-Acetamidophenyl)-N-(2,6-dioxopiperidin-3-yl)acetamide]
< 1 nM	O=C1CC[C@@H](NC(=O)[C@H]2CCNc3ccccc32)C(=O)N1 [Example 43, (4S)-N-[(3R)-2,6-Dioxopiperidin-3-yl]-1,2,3,4-tetrahydroquinoline-4-carboxamide]
1 nM	O=C1CC[C@H](NC(=O)C2CCc3ncccc32)C(=O)N1 (stereo partly drawn) [Example 19, N-((S)-2,6-Dioxopiperidin-3-yl)-6,7-dihydro-5H-cyclopenta[b]pyridine-5-carboxamide]
2 nM	O=C1CCC(NC(=O)c2coc3ccccc23)C(=O)N1 (stereo not shown) [Example 12, N-(2,6-Dioxopiperidin-3-yl)benzofuran-3-carboxamide]
